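Dose response: 5 concentrations. Exposure: 48 h. Format: 96-well plates. Endpoint: linear interpolation; highest concentration if not reached. GI50: concentration for 50% inhibition of growth. TGI denotes the concentration required for complete inhibition of growth.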 Where a SMILES comes first, the peptide text is derived from it. The star is where a group is joined. Boc = CC(C)(C)OC(=O)*; OSu = O=C1CCC(=O)N1O*
Legend:
Test in all cases: growth of human tumour cells (NCI), 48 h
OVCAR-4 ovarian = system: OVCAR-4 ovarian
T-47D breast = system: T-47D breast
BT-549 breast = system: BT-549 breast
NCI-H522 lung = system: NCI-H522 lung
SR leukemia = system: SR leukemia
SK-MEL-28 melanoma = system: SK-MEL-28 melanoma
A549 NSCLC = system: A549 NSCLC
SF-268 CNS = system: SF-268 CNS
HL-60(TB) leukemia = system: HL-60(TB) leukemia

| Compound | TGI (OVCAR-4 ovarian) [µM] | TGI (T-47D breast) [µM] | TGI (BT-549 breast) [µM] | TGI (NCI-H522 lung) [µM] | TGI (SR leukemia) [µM] | TGI (SK-MEL-28 melanoma) [µM] | TGI (A549 NSCLC) [µM] | TGI (SF-268 CNS) [µM] | TGI (HL-60(TB) leukemia) [µM] | GI50 (OVCAR-4 ovarian) [µM] | GI50 (T-47D breast) [µM] | GI50 (NCI-H522 lung) [µM] | GI50 (SR leukemia) [µM] | GI50 (SK-MEL-28 melanoma) [µM] | GI50 (A549 NSCLC) [µM] | GI50 (SF-268 CNS) [µM] | GI50 (HL-60(TB) leukemia) [µM] |
| --- | --- | --- | --- | --- | --- | --- | --- | --- | --- | --- | --- | --- | --- | --- | --- | --- | --- |
| N/C(=N\S(=O)(=O)c1ccc(S(=O)(=O)c2ccccc2)s1)Nc1ccc(Cl)cc1 | 94.8 | > 100 | 46 | 28.9 | 61.9 | 44 | > 100 | 47.7 | 53.8 |  |  |  |  |  |  |  |  |
| CC(NC(=O)C(NC(=O)OC(C)(C)C)C(C)C)C(=O)NCC(=O)ON1C(=O)CCC1=O (stereo not drawn) (Boc-Val-Ala-Gly-OSu; configuration not given here) |  | > 100 | > 100 | > 100 | > 100 | > 100 | > 100 | > 100 |  |  |  |  |  |  |  |  |  |
| C[C@H](CCC(=O)NCCS(=O)(=O)O)[C@H]1CC[C@H]2[C@@H]3CC[C@@H]4C[C@H](O)CC[C@]4(C)[C@H]3CC[C@]12C | > 100 | > 100 | > 100 | > 100 | > 100 | > 100 | > 100 | > 100 | > 100 |  |  |  |  |  |  |  |  |
| O=C(c1ccccc1)N1CCN(C(=S)N(C(=O)c2ccccc2)c2ccccc2)C1=S | 10.9 | > 31.9 | 13.7 | 6.9 | > 100 | 9.55 | 19.1 | 14.7 | 3.81 |  |  |  |  |  |  |  |  |
| Nc1ncnc2c1nnn2C1C=CC(COS(N)(=O)=O)C1 (configuration not stated) | 62.3 | 97.7 |  |  | > 100 | 26.2 | > 100 | 93.6 | 17.1 |  |  |  |  |  |  |  |  |
| CC(=O)N=C1N(/C=C2\C(=O)Oc3ccccc3C2=O)C(=O)/C(=C/c2ccc(OC(C)=O)cc2)N1C | > 100 | > 100 |  | > 100 | > 100 | > 100 | > 100 | > 100 | > 100 |  |  |  |  |  |  |  |  |
| O=C(/C=C/c1ccc(O)cc1)c1ccc2c(c1)OCO2 | 48 | 75.3 |  | 34.2 | 33.6 | 42.3 | 44.8 | 58.5 | 41.3 |  |  |  |  |  |  |  |  |
| O=C(Nc1cccc(-n2ccc3c(NC(=O)c4ccccc4)nccc32)c1)Nc1cc(C(F)(F)F)cc(C(F)(F)F)c1 | > 50 | > 50 |  | 2.69 | 6.48 | > 50 | > 50 | > 50 | 5.01 | 1.93 | 12.6 | 0.83 | 1.72 | 2.14 | 1.97 | 2.71 | 1.72 |
| CCCCC(C#N)(OP1(=O)OC(c2ccccc2)C(C)N1C)c1ccccc1 (configuration not stated) |  | 55.1 | 43.6 | 33.7 | 43.9 | 31.9 | 44.3 | 35.9 | 36 |  |  |  |  |  |  |  |  |
| CN(C)CCNC(=O)c1cccc2c(NCCN(C)C)c3ccccc3nc12 | 8.68 | > 83.6 | 18.4 | 2.97 | 3.45 | 28.6 | 6.05 | 11.2 |  |  |  |  |  |  |  |  |  |
| CCN(CC)CC1CCCCN1CC(=O)N1c2ccccc2NC(=O)CC1C (configuration not stated) | > 100 | > 100 | > 100 | > 100 |  | > 100 | > 100 | > 100 | > 100 |  |  |  |  |  |  |  |  |
| C[n+]1c(-c2ccc(/C=N/NC(=N)N/N=C/c3ccc(-c4cn5cc(Cl)ccc5[n+]4C)cc3)cc2)cn2cc(Cl)ccc21 | > 100 | > 100 |  | > 100 | > 100 | > 100 | > 100 | > 100 | > 100 |  |  |  |  |  |  |  |  |
| BrCCCCCOc1ccc(-c2c3ccccc3c(-c3ccc(OCCCCCBr)cc3)c3ccccc23)cc1 | > 100 | > 100 |  |  | > 100 | > 100 | > 100 | > 100 | > 100 |  |  |  |  |  |  |  |  |
| O=C1CCC2(CC1CC(Sc1ccccc1)Sc1ccccc1)OCCO2 (configuration not stated) | > 100 | 97.3 |  | 85.4 | 87.5 | > 100 | > 100 | > 100 | 46 |  |  |  |  |  |  |  |  |
| CCCCC(=O)NS(=NC(=O)c1ccccc1)C(Cl)(Cl)Cl (configuration not stated) | > 100 | > 100 | > 100 |  | > 100 | > 100 | > 100 | > 100 | > 100 |  |  |  |  |  |  |  |  |
| OC(c1cc2ccccc2o1)c1cc2ccccc2s1 (configuration not stated) | > 10 | > 10 |  | > 10 | > 10 | > 10 | > 10 | > 10 | > 10 |  |  |  |  |  |  |  |  |
| [N-]=[N+]=C1N=CN=C1c1ncn[nH]1 | > 100 | 83 |  | > 100 |  | > 100 | > 100 |  | 40.5 |  |  |  |  |  |  |  |  |
